Our source for the IC50 values is US11254668B2, “Pyrazolo[1,5-A]pyrazin-4-yl and related derivatives” (Pfizer Inc., priority 2017, dated 2022).

What all share (assay type): biochemical
In one assay the target is JAK2 (Homo sapiens (Human), UniProt O60674). The experiment in a line: JAK Caliper Enzyme Assay at 1 mM ATP, JAK2. The method, then: Compounds of the invention were evaluated by in vitro methods to determine their respective ability to inhibit the JAK kinases (TYK2, JAK1, JAK2, JAK3).
The human JAK inhibitory activity was determined by using a microfluidic assay to monitor phosphorylation of a synthetic peptide by the recombinant human kinase domain of each of the four members of the JAK family, JAK1, JAK2, JAK3 and TYK2. […] Each assay condition was optimized for enzyme concentration and room temperature incubation time to obtain a conversion rate of 20% to 30% phosphorylated peptide product. Reactions were terminated by the addition of stop buffer containing EDTA. Utilizing the LabChip 3000 mobility shift technology (Caliper Life Science), each assay reaction was sampled to determine the level of phosphorylation. This technology is separation-based, allowing direct detection of fluorescently labeled substrates and products. Separations are controlled by a combination of vacuum pressure and electric field strength optimized for each peptide substrate.
JAK Caliper Enzyme Assay at 1mM ATP
Compounds were added to a 384-well plate.
The data was collected using the HTS Well Analyzer software from Caliper Life Sciences. The data output for data analysis is the percent product converted calculated on peak height (Equation 1). % product converted=100*((product)/(product+substrate)) Equation 1: […]
The percent effect at each compound concentration was calculated based on the positive and negative control well contained within each assay plate (Equation 2). […] The negative control wells contained DMSO alone (at the same concentration as the compound wells) that was used to set the baseline activity in the assay (i.e., uninhibited JAK1, JAK2, JAK3 or TYK2). % effect=100*([…](positive control-negative control)) Equation 2: […]
The percent effect was plotted against the compound concentration compound.

A further assay concerns the target TYK2 (Homo sapiens (Human), UniProt P29597). The experiment in a line: JAK Caliper Enzyme Assay at 1 mM ATP, TYK2. The method in brief:
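Peptide phosphorylation by recombinant human kinase domain, 1 mM ATP, room temperature, EDTA-terminated, detected by microfluidic mobility shift; % effect normalised to DMSO baseline.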

Another assay has as its target JAK1 (Homo sapiens (Human), UniProt P23458). The assay can be described thus: JAK Caliper Enzyme Assay at 1 mM ATP, JAK1. A digest of the protocol:
(§1)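 Recombinant human kinase domains phosphorylated a fluorescent synthetic peptide at room temperature, with enzyme level and time tuned to 20% to 30% conversion; EDTA stop buffer ended reactions. Mobility-shift separation gave percent product from peak heights, normalised to DMSO and positive controls, and IC50s came from concentration–effect curves.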

A further assay addresses JAK3 (Homo sapiens (Human), UniProt P52333). The assay can be described thus: JAK Caliper Enzyme Assay at 1 mM ATP, JAK3. A digest of the protocol: as §1

By IC50 is commonly meant the concentration that gives 50% inhibition.

A value given as a limit tells only on which side of the number the result lay.

JAK1, sequence (P23458 875-1153): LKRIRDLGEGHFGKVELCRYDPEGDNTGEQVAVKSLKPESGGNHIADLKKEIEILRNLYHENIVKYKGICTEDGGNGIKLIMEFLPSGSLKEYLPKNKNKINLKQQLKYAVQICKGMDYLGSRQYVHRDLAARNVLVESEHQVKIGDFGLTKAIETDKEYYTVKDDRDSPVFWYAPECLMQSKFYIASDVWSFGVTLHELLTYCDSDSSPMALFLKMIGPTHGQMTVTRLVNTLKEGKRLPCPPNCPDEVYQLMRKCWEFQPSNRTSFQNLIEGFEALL
TYK2, sequence (P29597 897-1176): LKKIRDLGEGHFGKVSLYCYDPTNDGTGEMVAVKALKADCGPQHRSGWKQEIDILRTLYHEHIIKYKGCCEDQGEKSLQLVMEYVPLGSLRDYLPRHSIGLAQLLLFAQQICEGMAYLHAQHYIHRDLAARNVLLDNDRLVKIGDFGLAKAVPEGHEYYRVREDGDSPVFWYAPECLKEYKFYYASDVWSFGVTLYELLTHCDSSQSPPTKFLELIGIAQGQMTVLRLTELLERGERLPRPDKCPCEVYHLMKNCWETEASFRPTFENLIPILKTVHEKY
JAK2, sequence (O60674 849-1124): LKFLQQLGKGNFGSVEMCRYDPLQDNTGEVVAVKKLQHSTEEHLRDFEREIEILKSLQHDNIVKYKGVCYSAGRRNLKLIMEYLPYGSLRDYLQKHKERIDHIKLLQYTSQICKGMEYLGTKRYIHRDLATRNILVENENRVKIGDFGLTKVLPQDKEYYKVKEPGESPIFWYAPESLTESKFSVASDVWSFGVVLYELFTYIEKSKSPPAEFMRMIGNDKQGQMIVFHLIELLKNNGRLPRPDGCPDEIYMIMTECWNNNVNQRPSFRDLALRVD
JAK3, sequence (P52333 822-1111): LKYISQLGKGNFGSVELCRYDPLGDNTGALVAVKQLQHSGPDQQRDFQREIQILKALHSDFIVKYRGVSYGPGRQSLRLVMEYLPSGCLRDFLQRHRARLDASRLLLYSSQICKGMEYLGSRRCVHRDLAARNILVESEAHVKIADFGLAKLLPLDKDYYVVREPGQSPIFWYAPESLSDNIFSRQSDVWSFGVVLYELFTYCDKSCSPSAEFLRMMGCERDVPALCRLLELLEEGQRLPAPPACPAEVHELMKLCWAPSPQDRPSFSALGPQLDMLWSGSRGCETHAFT

Take `N#CCC1(n2ccc(-c3nc(-c4ccn[nH]4)cc4ncccc34)n2)CC(C#N)C1` (stereo not drawn) [Example 21, cis-3-(cyanomethyl)-3-{3-[7-(1H-pyrazol-5-yl)-1,6-naphthyridin-5-yl]-1H-pyrazol-1-yl}cyclobutanecarbonitrile]: the IC50 was determined as 50 nM on JAK2, 9 nM at TYK2, 71 nM at JAK1 and 6.75 µM at JAK3.
The corresponding values for `N#CC[C@H]1C[C@](CC#N)(n2ccc(-c3nc(-c4ccn[nH]4)cc4ncccc34)n2)C1` [Example 22, 2,2′-(trans-1-{3-[7-(1H-pyrazol-5-yl)-1,6-naphthyridin-5-yl]-1H-pyrazol-1-yl}cyclobutane-1,3-diyl)diacetonitrile] are 891 nM, 61 nM, 834 nM and above 10 µM.
The like results for `N#CCC1CC(CC#N)(n2ccc(-c3nc(-c4ccn[nH]4)cc4ncccc34)n2)C1` (stereo not drawn) [Example 23, 2,2′-(cis-1-{3-[7-(1H-pyrazol-5-yl)-1,6-naphthyridin-5-yl]-1H-pyrazol-1-yl}cyclobutane-1,3-diyl)diacetonitrile] were, in that order, 216 nM, 15 nM, 324 nM and above 10 µM.
With `N#CC[C@]1(n2ccc(-c3nc(-c4cc[nH]n4)cc4ncccc34)n2)C[C@@H](C(N)=O)C1` [Example 24, cis-3-(cyanomethyl)-3-{3-[7-(1H-pyrazol-3-yl)-1,6-naphthyridin-5-yl]-1H-pyrazol-1-yl}cyclobutanecarboxamide], the IC50 was 1690 nM on JAK2, 167 nM at TYK2, 3670 nM on JAK1 and above 10 µM on JAK3.
Consider `N#CCC1(n2ccc(-c3nc(-c4ccn[nH]4)cc4ncccc34)n2)CC(C(N)=O)C1` (stereo not drawn) [Example 25, trans-3-(cyanomethyl)-3-{3-[7-(1H-pyrazol-5-yl)-1,6-naphthyridin-5-yl]-1H-pyrazol-1-yl}cyclobutanecarboxamide], for which the IC50 on JAK2 is 8680 nM; on TYK2, 1640 nM; on JAK1, above 10000 nM; on JAK3, above 10 µM.
The like results for `CNC(=O)C1CC(CC#N)(n2ccc(-c3nc(-c4cc[nH]n4)cc4ncccc34)n2)C1` (stereo not drawn) [Example 26, cis-3-(cyanomethyl)-N-methyl-3-{3-[7-(1H-pyrazol-3-yl)-1,6-naphthyridin-5-yl]-1H-pyrazol-1-yl}cyclobutanecarboxamide] were, in that order, 3900 nM, 1470 nM, 6070 nM and above 10 µM.
The like results for `CNC(=O)[C@H]1C[C@](CC#N)(n2ccc(-c3nc(-c4ccn[nH]4)cc4ncccc34)n2)C1` [Example 27, trans-3-(cyanomethyl)-N-methyl-3-{3-[7-(1H-pyrazol-5-yl)-1,6-naphthyridin-5-yl]-1H-pyrazol-1-yl}cyclobutanecarboxamide] were, in that order, above 10000 nM, 7560 nM, above 10000 nM and above 10 µM.
As to `N#CCC1(n2ccc(-c3nc(-c4ccn[nH]4)cc4ncccc34)n2)CC(CO)C1` (stereo not drawn) [Example 28, [trans-3-(hydroxymethyl)-1-{3-[7-(1H-pyrazol-5-yl)-1,6-naphthyridin-5-yl]-pyrazol-1-yl}cyclobutyl]acetonitrile], the IC50 at JAK2 was 1790 nM; on TYK2, 207 nM; on JAK1, 2570 nM; at JAK3 it was above 10 µM.
The like results for `N#CCC1(n2ccc(-c3nc(-c4ccn[nH]4)cc4ncccc34)n2)CC(CO)C1` (stereo not drawn) [Example 29, [cis-3-(hydroxymethyl)-1-{3-[7-(1H-pyrazol-5-yl)-1,6-naphthyridin-5-yl]-1H-pyrazol-1-yl}cyclobutyl]acetonitrile] were, in that order, 2340 nM, 437 nM, 3800 nM and above 10 µM.
The corresponding values for `CO[C@H]1C[C@](CC#N)(n2ccc(-c3nc(-c4ccn[nH]4)cc4ncccc34)n2)C1` [Example 30, (trans-3-methoxy-1-{3-[7-(1H-pyrazol-5-yl)-1,6-naphthyridin-5-yl]-1H-pyrazol-1-yl}cyclobutyl)acetonitrile] are 1770 nM, 75 nM, 1960 nM and above 10 µM.
The like results for `CO[C@H]1C[C@@](CC#N)(n2ccc(-c3nc(-c4ccn[nH]4)cc4ncccc34)n2)C1` [Example 31, (cis-3-methoxy-1-{3-[7-(1H-pyrazol-5-yl)-1,6-naphthyridin-5-yl]-1H-pyrazol-1-yl}cyclobutyl)acetonitrile] were, in that order, 955 nM, 53 nM, 1800 nM and above 10 µM.
`CC(=O)NC1CC(CC#N)(n2ccc(-c3nc(-c4cc[nH]n4)cc4ncccc34)n2)C1` (stereo not drawn) [Example 32, N-[trans-3-(cyanomethyl)-3-{3-[7-(1H-pyrazol-3-yl)-1,6-naphthyridin-5-yl]-pyrazol-1-yl}cyclobutyl]acetamide]: the IC50 was 3430 nM on JAK2, 730 nM on TYK2, 5830 nM on JAK1 and above 10 µM at JAK3.
The corresponding values for `C[C@]1(C#N)C[C@@](CC#N)(n2ccc(-c3nc(-c4cc[nH]n4)cc4ncccc34)n2)C1` [Example 35, cis-3-(cyanomethyl)-1-methyl-3-{3-[7-(1H-pyrazol-3-yl)-1,6-naphthyridin-5-yl]-1H-pyrazol-1-yl}cyclobutanecarbonitrile] are 339 nM, 44 nM, 569 nM and above 10 µM.
The like results for `C[C@]1(C#N)C[C@](CC#N)(n2ccc(-c3nc(-c4cc[nH]n4)cc4ncccc34)n2)C1` [Example 36, trans-3-(cyanomethyl)-1-methyl-3-{3-[7-(1H-pyrazol-3-yl)-1,6-naphthyridin-5-yl]-1H-pyrazol-1-yl}cyclobutanecarbonitrile] were, in that order, 5740 nM, 1060 nM, 7100 nM and above 10 µM.
As to `N#CCC1(n2ccc(-c3nc(-c4cc[nH]n4)cc4ncccc34)n2)CC2(COC2)C1` [Example 37, (6-{3-[7-(1H-pyrazol-3-yl)-1,6-naphthyridin-5-yl]-1H-pyrazol-1-yl}-2-oxaspiro[3.3]hept-6-yl)acetonitrile], the IC50 is 2830 nM at JAK2, 369 nM on TYK2, 4280 nM at JAK1 and above 10 µM on JAK3.
The corresponding values for `CC(=O)N1CC2(C1)CC(CC#N)(n1ccc(-c3nc(-c4cc[nH]n4)cc4ncccc34)n1)C2` [Example 38, (2-acetyl-6-{3-[7-(1H-pyrazol-3-yl)-1,6-naphthyridin-5-yl]-1H-pyrazol-1-yl}-2-azaspiro[3.3]hept-6-yl)acetonitrile] are 5630 nM, 4020 nM, above 10000 nM and above 10 µM.
The corresponding values for `CC(C)(O)[C@H]1C[C@](CC#N)(n2ccc(-c3nc(-c4cc[nH]n4)cc4ncccc34)n2)C1` [Example 39, [trans-3-(2-hydroxypropan-2-yl)-1-{3-[7-(1H-pyrazol-3-yl)-1,6-naphthyridin-5-yl]-1H-pyrazol-1-yl}cyclobutyl]acetonitrile] are 2080 nM, 205 nM, 2770 nM and above 10 µM.
The like results for `CC(C)(O)[C@H]1C[C@@](CC#N)(n2ccc(-c3nc(-c4cc[nH]n4)cc4ncccc34)n2)C1` [Example 40, [cis-3-(2-hydroxpropan-2-yl)-1-{3-[7-(1H-pyrazol-3-yl)-1,6-naphthyridin-5-yl]-1H-pyrazol-1-yl}cyclobutyl]acetonitrile] were, in that order, 4590 nM, 730 nM, 7300 nM and above 10 µM.
Regarding `Cc1cc(-c2cc3ncccc3c(-c3ccn([C@]4(CC#N)C[C@@H](C#N)C4)n3)n2)n[nH]1` [Example 43, trans-3-(cyanomethyl)-3-{3-[7-(5-methyl-1H-pyrazol-3-yl)-1,6-naphthyridin-5-yl]-1H-pyrazol-1-yl}cyclobutanecarbonitrile], the IC50 is 91 nM at JAK2, 14 nM on TYK2, 502 nM at JAK1 and above 10 µM on JAK3.
